Source: ChEMBL document CHEMBL3046188, “Prodrug-oriented molecular design of neonicotinoids: preparation of imidacloprid-related 5,5-dimethoxy-1,3-diazacyclohexane derivatives and their insecticidal activity” (2005)

Key:
Type in all cases: functional
[1] = test system: Periplaneta americana; assay: Insecticidal activity against Periplaneta americana (American cockroach) administered through injection into abdomen measured 24 hr post compound injection
[2] = test system: Periplaneta americana; assay: Neuroblocking potency in Periplaneta americana (American cockroach) abdominal fifth and sixth ganglia assessed as neuroblocking concentration
[3] = test system: Myzus persicae; assay: Insecticidal activity against Myzus persicae (green peach aphid) reared on compound pre-treated […] plants assessed as insect mortality rate at 4 ppm measured 7 days post compound treatment
[4] = test system: Myzus persicae; assay: Insecticidal activity against Myzus persicae (green peach aphid) reared on compound pre-treated […] plants assessed as insect mortality rate at 20 ppm measured 7 days post compound treatment
[5] = test system: Myzus persicae; assay: Insecticidal activity against Myzus persicae (green peach aphid) reared on compound pre-treated […] plants assessed as insect mortality rate at 0.16 ppm measured 7 days post compound treatment
[6] = test system: Periplaneta americana; assay: Insecticidal activity against Periplaneta americana (American cockroach) administered through injection into abdomen co-injceted with 50 ug piperonyl butoxide and 50 ug NIA 16388 measured 24 hr post compound injection
[7] = test system: Myzus persicae; assay: Insecticidal activity against Myzus persicae (green peach aphid) reared on compound pre-treated […] plants assessed as insect mortality rate at 0.8 ppm measured 7 days post compound treatment
[8] = test system: Myzus persicae; assay: Insecticidal activity against Myzus persicae (green peach aphid) reared on compound pre-treated […] plants assessed as insect mortality rate at 100 ppm measured 7 days post compound treatment

| SMILES | MLD [1] | Activity [2] | mortality at 4 ppm [3] | mortality at 20 ppm [4] | mortality at 0.16 ppm [5] | MLD [6] | mortality at 0.8 ppm [7] | mortality at 100 ppm [8] |
| --- | --- | --- | --- | --- | --- | --- | --- | --- |
| C/N=C(\NCc1ccc(Cl)nc1)N[N+](=O)[O-] | 0.0051 µmol | 0.0085 mM | 100% | 100% | 100% | 0.0051 µmol | 100% |  |
| O=[N+]([O-])/N=C1\NCCCN1Cc1ccc(Cl)nc1 | 9.6e-05 µmol | 0.0045 mM | 100% | 100% | 90% | 0.015 µmol | 100% |  |
| N/C(=N\[N+](=O)[O-])NCc1ccc(Cl)nc1 | >0.4 µmol | >0.65 mM |  |  |  | >0.4 µmol |  | 60% |
| COC1CN/C(=N\[N+](=O)[O-])N(Cc2ccc(Cl)nc2)C1 (stereo not drawn) |  |  | 0% | 40% |  |  |  |  |
| CC1(C)CN/C(=N\[N+](=O)[O-])N(Cc2ccc(Cl)nc2)C1 |  |  | 0% | 60% |  |  |  |  |
| COC1(OC)CN/C(=C\[N+](=O)[O-])N(CC2CCOC2)C1 (stereo not drawn) | >0.36 µmol | >0.54 mM | 0% | 60% |  | >0.36 µmol |  |  |
| COC1(OC)CN/C(=C\[N+](=O)[O-])N(Cc2ccc(Cl)nc2)C1 | 0.35 µmol | 1 mM | 60% | 90% |  | >0.44 µmol | 0% |  |
| COC1(OC)CN/C(=N\C#N)N(Cc2ccc(Cl)nc2)C1 | >0.4 µmol | 0.62 mM | 60% | 100% | 20% | >0.4 µmol | 60% |  |
| COC1(OC)CN(C)/C(=N\[N+](=O)[O-])N(Cc2cnc(Cl)s2)C1 | 0.36 µmol | >0.54 mM | 100% | 100% | 40% | >0.36 µmol | 60% |  |
| COC1(OC)CN(C)/C(=N\[N+](=O)[O-])N(Cc2ccc(Cl)nc2)C1 | 0.36 µmol | >0.56 mM | 90% | 90% | 30% | >0.36 µmol | 60% |  |
| COC1(OC)CN/C(=N\[N+](=O)[O-])N(Cc2cnc(Cl)s2)C1 | 0.24 µmol | >0.56 mM | 100% | 100% | 50% | >0.34 µmol | 60% |  |
| COC1(OC)CN/C(=N\[N+](=O)[O-])N(Cc2ccc(Cl)nc2)C1 | 0.19 µmol | 0.56 mM | 100% | 100% | 60% | >0.38 µmol | 90% |  |
